Like-named read-outs stand apart in the source and are kept apart here.
Legend:
Format in all cases: cell-based, human
HCT116-DoxR cells [1] = assay: Apoptosis by Annexin V-FITC/PI flow cytometry; conditions: 48 h, complexes at IC50, Dox 6 μM, Cis 5 μM
Description: Initially, a quantitative assay with double staining using annexin V-FITC (FITC, fluorescein isothiocyanate) and propidium iodide (PI) through flow cytometry was performed.[24] Annexin V-FITC, a probe with an affinity for the ionic phospholipid phosphatidylserine (PS), predominantly located on the inner side of the plasma membrane in healthy cells, undergoes translocation to the outer plasma membrane during the early stages of apoptosis.[61],[67] In contrast, PI is a DNA intercalating agent that marks cells with compromised plasma membrane (usually in the late stages of apoptosis or in necrosis), emitting red fluorescence upon interaction with nucleic acids.[54],[68] This assay allows for distinguishing cells in four different conditions: viable cells (FITC–, PI−), early apoptosis (FITC+, PI−), late apoptosis (FITC+, PI+), and necrosis (FITC–, PI+).
The Annexin V-FITC Apoptosis Detection Kit (catalog no. V13245, Invitrogen, USA) was used in this study for the induction of apoptosis analysis. HCT116-DoxR cells were seeded in 6-well plates at a cell density of 1 × 10^5 cells/mL and incubated for 24 h, under the same conditions mentioned before. […] After this incubation period, the cells were washed with PBS 1× and trypsinized with TrypLE Express (Invitrogen). The supernatant was discarded, and the pellet was washed with PBS 1×. The cells were resuspended in 1× Annexin V-FITC binding buffer. Subsequently, the samples were incubated at room temperature (RT) with Alexa Fluor 488 annexin V and 100 μg/mL of propidium iodide (PI) in the dark for 15 min. After incubation, 1× Annexin V-FITC binding buffer was added and the samples were analyzed using an Attune Acoustic Focusing Flow Cytometer (Life Technologies, Carlsbad, USA). Results were processed with Attune Cytometric software.

HCT116-DoxR cells [2] = assay: Cell cycle progression analysis (PI, flow cytometry); conditions: complexes at IC50, Dox 6 μM, Cis 5 μM; 9, 12, 18, 24 h after double thymidine block
Source text: It is important to note that exposure to increased levels of ROS can trigger genotoxic stress, an effect often associated with chemotherapy and that may promote cell cycle arrest.[84] The cell cycle comprises a sequential set of cellular events such as checkpoints that regulate transitions between different phases when cells are under stress conditions. Indeed, if DNA damage occurs, interphase checkpoints can trigger cell cycle arrest, repair, and induction of apoptosis or senescence.[85] Indeed, data in Table 7 show some degree of accumulation of both complexes in the nucleus, which may expose the genomic DNA to their action. […] This DNA intercalating fluorophore allows the analysis of DNA content in various phases of the cell cycle (G0/G1, S, and G2/M) (the fluorescence intensity emitted by PI doubles with the duplication of DNA quantity in the G1 and G2 phases),[86] and its detection can be performed by flow cytometry. […] To ensure that all cells were in the same phase of the cell cycle (S phase) when exposed to the Cu(II) complexes and controls, a double thymidine block was applied.[83]
HCT116-DoxR cells were cultured in six-well plates at a density of 1 × 10^5 cells/mL and incubated at 37 °C, 5% (v/v) CO2, and 99% (v/v) relative humidity for 8 h. To ensure that cells were in the same phase of the cell cycle, they were subjected to a double thymidine block for synchronization. At the end of the incubation, the culture medium was replaced with 2 mM thymidine in complete medium, and cells were incubated for 16 h. After incubation, the thymidine-containing medium was replaced with a thymidine-free complete medium, and cells were incubated for an additional 8 h. After this time, a second thymidine block was applied, as described earlier. At the end of the incubation, the thymidine-containing medium was replaced with a fresh medium containing the cooper complexes at their IC50 concentration. A 0.1% (v/v) DMSO solution was used as vehicle control, while 6 μM Dox, and 5 μM Cis were used as positive controls. Cells were incubated again for 9, 12, 18, and 24 h. Immediately after exposure (0 h) and at the end of each incubation period, the medium was removed, cells detached with TrypLE Express, and centrifuged for 5 min at 650 × g, at 4 °C. The pellet was resuspended in cold PBS 1× and centrifuged at 3000 × g for 5 min, at 4 °C. Later, the pellet was resuspended in cold PBS 1×, and 1 mL of 80% (v/v) cold ethanol was added dropwise to each tube. […] The DNA content was evaluated on an Attune acoustic focusing flow cytometer (Life Technologies, Carlsbad, USA), and the results were analyzed by the respective software (Attune Cytometric software).

[3] = test system: HCT116-DoxR cells (doxorubicin resistant colorectal carcinoma); assay: MTS cell viability assay, HCT116-DoxR 2D; conditions: for IC50: 48 h of exposure, MTS, relative IC50, mean + SEM, read-out: IC50 HCT116-DoxR (2D); for SI HCT116-DoxR: ratio IC50 fibroblasts / IC50 HCT116-DoxR
Description: The antiproliferative effect of the Cu(II) complexes in tumor and healthy cell lines was assessed through the MTS assay, a colorimetric method that is widely used to evaluate cellular viability, specifically mitochondrial viability.[53],[54] Cellular viability was determined after 48 h exposure to a concentration range (0.1–50 μM) of Cu(II) complexes in three tumor cell lines. […] Additionally, the viability of healthy primary dermal fibroblasts was performed as a comparison of the complexes’ antiproliferative effects in normal cells.
Cellular viability assays were performed using HCT116, HCT116-DoxR, and A2780 cancer cell lines as well as normal human primary fibroblasts. Cells were seeded at a density of 0.75 × 10^5 cells/mL in 96-well plates and incubated at 37 °C with 5% (v/v) CO2 for 24 h. After this incubation period, the copper complexes were accurately weighed and immediately dissolved in 100% (v/v) dimethyl sulfoxide (DMSO). Subsequently, the complexes were diluted to the final concentration using a cell culture medium. The culture medium in each well was replaced with fresh medium containing varying concentrations of the complexes (ranging from 0.01 to 50 μM). Negative controls contained culture medium with 0.1% (v/v) DMSO, and positive controls contained 0.4 μM Dox.
After an additional 48 h of incubation under the same conditions, cellular viability was assessed using the CellTiter 96 Aqueous One Solution Cell Proliferation Assay kit (Promega, Madison, USA). Metabolically active cells contain mitochondrial dehydrogenases that can reduce 3-(4,5-dimethylthiazol-2-yl)-5-(3-carboxymethoxyphenyl)-2-(4-sulfophenyl)-2H-tetrazolium, the inner salt (MTS) to formazan. The absorbance of formazan, measured at 490 nm in a microplate reader (Tecan Infinite M200, Tecan, Männedorf, Switzerland), is directly proportional to the number of viable cells.[104]
The cell viability versus concentration graphics were analyzed using Prism 8 software (GraphPad) to determine the half-maximal inhibitory concentration (IC50) of each complex for the respective cell line. Additionally, the selective index (SI) for each complex was calculated by dividing the IC50 of human fibroblasts by the IC50 values of the tested cancer cell lines.

IC50 ([3]; Homo sapiens) | Compound | early apoptosis (HCT116-DoxR cells [1]) | late apoptosis (HCT116-DoxR cells [1]) | necrosis (HCT116-DoxR cells [1]) | early apoptosis (HCT116-DoxR cells [1]; listed as cisplatin) | late apoptosis (HCT116-DoxR cells [1]; listed as cisplatin) | effect on cell cycle progression (HCT116-DoxR cells [2]) | viable cells (HCT116-DoxR cells [1]) | IC50 [3] | SI HCT116-DoxR [3] | late apoptosis (HCT116-DoxR cells [1]; listed as Dox) | necrosis (HCT116-DoxR cells [1]; listed as Dox) | viable cells (HCT116-DoxR cells [1]; listed as Dox)
 | N.N.[Cl][Pt][Cl] [Cisplatin] | 40.1% | 25.8% | 0.9% ± 1.1 | 40.1% ± 11.8 | 25.8% ± 7.7 | has a cytostatic effect in G2/M after incubation for 24 h |  |  |  |  |  | 
 | [Cl][Cu-3]12([Cl])[n+]3ccccc3-c3cc(-c4ccc5ccccc5c4)cc([n+]31)-c1cccc[n+]12 [Cu1b] |  |  | 0.7% ± 0.6 |  |  | a delay in the cell cycle at the S phase after 9 h, in the G2/M after 12 h of incubation, and a delay in the cell cycle at G0/G1 at 18 h | 59.3% ± 7.8 | 290 ± 20 nM | 45.9 |  |  | 
> 6000 nM | COc1cccc2c1C(=O)c1c(O)c3c(c(O)c1C2=O)C[C@@](O)(C(=O)CO)C[C@@H]3O[C@H]1C[C@H](N)[C@H](O)[C@H](C)O1 [Doxorubicin] | 16.6% ± 5.5 | 13.9% ± 1.9 | 9.8% ± 4.0 |  |  | did not affect the cell cycle progression or cause an arrest | 59.8% ± 3.8 |  |  | 13.9% | 9.8% | about 59.8%
 | [Cl][Cu-3]12([Cl])[n+]3ccccc3-c3cc(-c4cccc5ccccc45)cc([n+]31)-c1cccc[n+]12 [Cu1a] |  |  |  |  |  | a delay in the cell cycle at the S phase after 9 h, in the G2/M after 12 h of incubation, and a delay in the cell cycle at G0/G1 at 18 h | 23.1% ± 4.5 | 240 ± 20 nM | 38.6 |  |  | 
